According to patent US20170327789A1, “Modulation of Dopamine Receptor to Promote Neural Cell Differentiation” (The Hospital for Sick Children, priority 2014, published 2017):

Experiments:
human fetal NSC (hf5205) = assay: Immunocytochemistry for Vglut1 after 3 weeks differentiation; assay type: cell-based; conditions: 2-step growth withdrawal
Method: Antibodies included: Beta-III tubulin (1:100 MAB1637), GFAP (1:1000, DAKO), Vglut1 (1:1000, Synaptic system), GABA (1:1000, Sigma). Appropriate fluorescent-conjugated secondary antibodies were used at 1:500 for 1 h at room temperature. Coverslips were mounted with fluorescent mounting medium (DAKO) containing DAPI (1:1000) and cells were imaged using Leica microscope. Hit validation for differentation. All retests for differentiation were done by a two step growth withdrawal method (as described in Sun et al. Mol. Cell. Neurosci. 38(2008) 245-258) with and without the test compound for 8 days. […] Immunocytochemistry was performed for a series of antibodies marking different classes of neurons based on their neurotransmitters including glutamatergic, dopaminergic, cholinergic and serotonergic. […] Vglut1 is a vesicular glutamate transporter required for transport of glutamate into synaptic vesicles of glutamatergic neurons.

human fetal NSC [1] = assay: RT-qPCR gene expression of neuronal lineage and cortical layer markers in differentiated cells; assay type: cell-based
Method: Hit validation for differentation. All retests for differentiation were done by a two step growth withdrawal method (as described in Sun et al. Mol. Cell. Neurosci. 38(2008) 245-258) with and without the test compound for 8 days. Test compounds included L-741,742 (3 μM), PNU96415E (15 μM), Ifenprodil tartrate (1.5 μM), McN A-343 (4 μM), and (−) —N-Phenylcarbamoyleseroline (6 μM). For mature neuronal marker analysis, human fetal NSC were differentiated for 3 weeks using L-741,742 (2-4 μM varying at different stages) in the two step growth withdrawal method.
The differentiated cells were further tested for gene expression of different neuronal lineage markers by RT-qPCR. A series of primers were designed for markers representing both neurotransmitters and domain specific regions as shown in Table 1.
L-741,742-differentiated neurons show cortical layer V marker. L-741,742-differentiated cells show increased expression of VGLUT1 and NEUROG2. NEUROG2 expression is required for promoting excitatory neurons in the dorsal cortical region during development. To test if L-741,742 promotes or specifies specific cortical layer neurons, a series of primers were designed to mark all layers of cortex; Reelin (layer 1), Tbr1 (layer V1), Ctip2 (Layer V), Satb2 (Layer II-III) and Foxg1 (telenchepalic marker) (Table 1). The expression of these markers in L-741,742-differentiated cells was determined by RT-qPCR. […] Thus, L-741,742-differentiated neurons express cortical layer V marker CTIP2 and telencephalic marker FOXG1, with VGLUT1 expression, indicating differentiation into cortical layer neurons.

human fetal NSC [2] = assay: GABA staining of differentiated cells, week 1-3; assay type: cell-based; conditions: 2 week differentiated cells
Method: Immunocytochemistry. hfNS cells differentiated on coverslips were fixed with 4% paraformaldehyde and permeabilized with 0.3% Triton X100, block with 5% goat serum, and incubated with primary antibody overnight at 4° C. Antibodies included: Beta-III tubulin (1:100 MAB1637), GFAP (1:1000, DAKO), Vglut1 (1:1000, Synaptic system), GABA (1:1000, Sigma). Appropriate fluorescent-conjugated secondary antibodies were used at 1:500 for 1 h at room temperature. Coverslips were mounted with fluorescent mounting medium (DAKO) containing DAPI (1:1000) and cells were imaged using Leica microscope.
L-741,742-differentiated cells were also tested for GABA staining from week 1-3 and GABA positive cells were present in early in 1 week differentiated cells, showing up to 11% GABA positive neurons in 2 week differentiated cells (FIG. 5).

Hf5205 cells = assay: Single cell qPCR (Fluidigm analysis) of differentiated cells; assay type: cell-based, human; conditions: 3.5 μM, three weeks
Method: Single Cell qPCR (Fluidigm Analysis). Differentiated hfNS (hf5205) at week 3 was accutased and cells were resuspended in NS medium containing 1 μg per ml of propidium iodide and filtered through a 40 μm nylon cell strainer followed by live single cell sorting into a 96 well qPCR plate on a BD cell sorter. Cells were sorted into 10 μl of preamplification mix containing 40 nM of all primers for the 48 genes, and the following components of CellsDirect One-Step qRT-PCR kit (Invitrogen) as directed in protocol: 2× reaction mix, SuperScript III RT/platinum Taq mix. After sorting, samples were reverse transcribed and preamplified for 18 cycles. Preamplified samples were diluted (2×) with TE buffer and stored at −20° C. Sample and assay primer preparation for Fluidigm Dynamic arrays was done according to the manufacturer's recommendation. Samples were mixed with 2× assay loading reagent (Fluidigm Corp), 20× EvaGreen and TaqMan gene expression master mix. The Fluidigm Dynamic arrays were primed and loaded on the IFC controller and qPCR experiments were run on a Biomark system for genetic analysis.
Fluidigm Analysis. Hf5205 cells were differentiated in the two-step growth withdrawal method, with and without L-741,742 (3.5 μM) for three weeks. The differentiated cells were harvested and filtered through a 40 uM nylon filter and live sort single cell (based on PI staining) into a 96 well qRT-PCR plate containing pre-amplification mix of 48 primers, reverse transcribed and amplified for 48 genes (as described in Pasca et al. Nature Medicine (2011) November 27; 17(12) 1657-62) in one step using a kit from Invitrogen. Samples and primer pairs were prepared for Fluidigm as per protocol. Cells were identified based on presence of RPS18 and GAPDH, Data was analyzed based on population of cells expressing particular genes using different CT value cut off.
Characterization of L-741,742-differentiated cells by Fluidigm analysis. To further characterize the different population of neurons in L-741,742 differentiated culture, a single cell Fluidigm array was employed that can perform multiple qRT-PCR (48 genes or 96 genes) at a single cell level as shown in FIG. 6. Forty eight (48) gene primers marking various cell populations were used including, early progenitor marking dorsal, ventral or midbrain, differentiated neuronal markers based on neurotransmitters GABA or glutamatergic and markers specifying different cortical layers. Primer sequences were obtained from Pasca et al. Nature Medicine (2011) November 27; 17(12) 1657-62).

Row | Molecule | Vglut1-positive staining indicating differentiation into glutamatergic neurons (human fetal NSC (hf5205)) | Reelin expression (human fetal NSC [1]; at the concentration tested) | Tbr1 expression (human fetal NSC [1]; at the concentration tested) | increase in NEUROG2 expression (human fetal NSC [1]; compared to the control) [fold] | increase in VGLUT1 expression (human fetal NSC [1]; compared to the control) | increase in CTIP2 expression (human fetal NSC [1]; cortical layer V marker) | increase in FOXG1 expression (human fetal NSC [1]; telencephalic marker) [fold] | GABA positive neurons (human fetal NSC [2]) | expression of CAMKII (marking glutamatergic neurons) (Hf5205 cells) | expression of EVT1 (marking lower cortical layer V) (Hf5205 cells) | expression of MAP2 (marking neurons) (Hf5205 cells) | expression of VGLUT1 (marking glutamatergic neurons) (Hf5205 cells) | expression of VGLUT2 (marking glutamatergic neurons) (Hf5205 cells) | expression of VGLUT3 (marking glutamatergic neurons) (Hf5205 cells)
1 | Cc1c(C2CCN(CCc3ccccc3)CC2)noc1-c1ccc(Cl)cc1 [L-741,742] | Vglut1-positive staining | not detectable | not detectable | 11 | 15-35 fold | approximately 23 fold | ~27 | up to 11% | increase | increase | increase | increase | increase | increase
2 | Ifenprodil tartrate | Vglut1-positive staining |  |  |  |  |  |  |  |  |  |  |  |  | 
3 | Cl.Cl.Fc1ccc(N2CCN(CCC3OCCc4ccccc43)CC2)cc1 (stereo not shown) [PNU96415E] | Vglut1-positive staining |  |  |  |  |  |  |  |  |  |  |  |  | 
